# Experimental data from patent US20060069132A1, “Azolecarboxamide herbicides” (priority 2004, published 2006).
# Columns and labels:
# wheat = test: Test B postemergence herbicide test; type: in vivo, Triticum aestivum; parameters: key to Wheat plant response rating: 0 = no effect, 100 = complete control; conditions: postemergence, 500 g ai/ha; visual rating, scale 0 (no effect) to 100 (complete control)
# Procedure, shortened: (§1)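 Postemergence plants were sprayed with formulated test chemicals at 2 to 18 cm height (1- to 4-leaf stage); paddy species were grown to the 2-leaf stage. After 13 to 15 days in a greenhouse, injury was rated visually against untreated controls on a 0–100 scale (0 = no effect, 100 = complete control).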
# barnyardgrass [1] = test: Test B pre-/postemergence herbicide test; type: in vivo, Echinochloa crus-galli; conditions: for Plant response rating, Barnyardgrass: preemergence; for Barnyardgrass plant response rating: postemergence, visual rating, scale 0 (no effect) to 100 (complete control)
# Procedure, shortened: (§2)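 Test chemicals in a non-phytotoxic solvent mixture with surfactant were applied preemergence to seeded species and postemergence to plants 2-18 cm tall (1- to 4-leaf stage); rice and barnyardgrass were also tested in a flooded paddy at the 2-leaf stage. Visual rating versus controls after 13-15 days in greenhouse, scale 0 (no effect) to 100 (complete control).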
# pigweed = test: Test B pre-/postemergence herbicide test; type: in vivo, Amaranthus retroflexus; conditions: for Plant response rating, Pigweed: preemergence; for Pigweed plant response rating: postemergence, visual rating, scale 0 (no effect) to 100 (complete control)
# Procedure, shortened: (§3)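 Herbicidal effect was judged by eye on a 0–100 scale after plants stood 13 to 15 days in the greenhouse following pre- or postemergence treatment with surfactant-containing formulations.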
# cocklebur = test: Test B pre-/postemergence herbicide test; type: in vivo, Xanthium strumarium; conditions: for Plant response rating, Cocklebur: preemergence; for Cocklebur plant response rating: postemergence, visual rating, scale 0 (no effect) to 100 (complete control)
# Procedure, shortened: as §2
# lambsquarters = test: Test B pre-/postemergence herbicide test; type: in vivo, Chenopodium album; conditions: for Plant response rating, Lambsquarters: preemergence; for Lambsquarters plant response rating: postemergence, visual rating, scale 0 (no effect) to 100 (complete control)
# Procedure, shortened: as §3
# blackgrass = test: Test B postemergence herbicide test; type: in vivo, Alopecurus myosuroides; conditions: postemergence, visual rating, scale 0 (no effect) to 100 (complete control)
# Procedure, shortened: (§4)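 Paddy species grown to the 2-leaf stage under flooding; blackgrass sprayed postemergence at 2–18 cm (1- to 4-leaf stage). Plants kept in a greenhouse for 13 to 15 days, then visually rated against controls on 0 (no effect) to 100 (complete control).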
# wild oat = test: Test B postemergence herbicide test; type: in vivo, Avena fatua; conditions: postemergence, visual rating, scale 0 (no effect) to 100 (complete control)
# Procedure, shortened: as §1
# barnyardgrass [2] = test: Test B flooded paddy test; type: in vivo, Echinochloa crus-galli; conditions: 1000 g ai/ha, visual rating, scale 0 to 100 (0 no effect, 100 complete control), 13 to 15 days
# Procedure, shortened: as §4
# Surinam grass = test: Test B pre-/postemergence herbicide test; type: in vivo, Urochloa decumbens; conditions: for Plant response rating, Surinam Grass: preemergence; for Surinam Grass plant response rating: postemergence, visual rating, scale 0 (no effect) to 100 (complete control)
# Procedure, shortened: as §3
# morningglory = test: Test B pre-/postemergence herbicide test; type: in vivo, Ipomoea coccinea; conditions: for Plant response rating, Morningglory: preemergence; for Morningglory plant response rating: postemergence, visual rating, scale 0 (no effect) to 100 (complete control)
# Procedure, shortened: as §2
# giant foxtail = test: Test B pre-/postemergence herbicide test; type: in vivo, Setaria faberi; conditions: for Plant response rating, Foxtail, Giant: preemergence; for Foxtail, Giant plant response rating: postemergence, visual rating, scale 0 (no effect) to 100 (complete control)
# Procedure, shortened: as §3
# large crabgrass = test: Test B pre-/postemergence herbicide test; type: in vivo, Digitaria sanguinalis; conditions: for Plant response rating, Crabgrass, Large: preemergence; for Crabgrass, Large plant response rating: postemergence, visual rating, scale 0 (no effect) to 100 (complete control)
# Procedure, shortened: as §3
# [3] = test system: small flower umbrella sedge; test: Test B flooded paddy test; type: in vivo, Cyperus difformis; conditions: 1000 g ai/ha, visual rating, scale 0 to 100 (0 no effect, 100 complete control), 13 to 15 days
# Procedure, shortened: as §4
# rice = test: Test B flooded paddy test; type: in vivo, Oryza sativa; conditions: 1000 g ai/ha, visual rating, scale 0 to 100 (0 no effect, 100 complete control), 13 to 15 days
# Procedure, shortened: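 Treated at 2-leaf (paddy) or 1–4-leaf, 2–18 cm (postemergence); greenhouse 13–15 d; visual score vs control, 0 none to 100 complete control; dash = not tested.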
# velvetleaf = test: Test B pre-/postemergence herbicide test; type: in vivo, Abutilon theophrasti; conditions: for Plant response rating, Velvetleaf: preemergence; for Velvetleaf plant response rating: postemergence, visual rating, scale 0 (no effect) to 100 (complete control)
# Procedure, shortened: as §3
# [4] = 500 g ai/ha, visual rating 0-100, 0 no effect, 100 complete control
# [5] = 125 g ai/ha, 0 to 100 scale, 0 is no effect, 100 is complete control
smiles,measurement,setting,value
CCN(CC)C(=O)c1ccnc(NC(=O)c2cc(C(C)(C)C)nn2CC)c1 [Compound 153],Wheat plant response rating,wheat,10
same,"Plant response rating, Barnyardgrass",barnyardgrass [1]; [4],90
same,Barnyardgrass plant response rating,barnyardgrass [1]; 125 g ai/ha,30
same,Barnyardgrass plant response rating,barnyardgrass [1]; 500 g ai/ha,30
same,"Plant response rating, Barnyardgrass",barnyardgrass [1]; [5],60
same,"Plant response rating, Pigweed",pigweed; [4],100
same,Pigweed plant response rating,pigweed; 125 g ai/ha,20
same,Pigweed plant response rating,pigweed; 500 g ai/ha,70
same,"Plant response rating, Pigweed",pigweed; [5],100
same,"Plant response rating, Cocklebur",cocklebur; [4],0
same,Cocklebur plant response rating,cocklebur; 125 g ai/ha,50
same,Cocklebur plant response rating,cocklebur; 500 g ai/ha,100
same,"Plant response rating, Cocklebur",cocklebur; [5],0
same,"Plant response rating, Lambsquarters",lambsquarters; [4],100
same,Lambsquarters plant response rating,lambsquarters; 125 g ai/ha,80
same,Lambsquarters plant response rating,lambsquarters; 500 g ai/ha,80
same,"Plant response rating, Lambsquarters",lambsquarters; [5],100
same,Blackgrass plant response rating,blackgrass; 125 g ai/ha,10
same,Blackgrass plant response rating,blackgrass; 500 g ai/ha,10
same,"Oat, Wild plant response rating",wild oat; 125 g ai/ha,20
same,"Oat, Wild plant response rating",wild oat; 500 g ai/ha,50
same,Barnyardgrass plant response rating,barnyardgrass [2],40
same,"Plant response rating, Surinam Grass",Surinam grass; [4],70
same,Surinam Grass plant response rating,Surinam grass; 125 g ai/ha,30
same,Surinam Grass plant response rating,Surinam grass; 500 g ai/ha,30
same,"Plant response rating, Surinam Grass",Surinam grass; [5],10
same,"Plant response rating, Morningglory",morningglory; [4],10
same,Morningglory plant response rating,morningglory; 125 g ai/ha,10
same,Morningglory plant response rating,morningglory; 500 g ai/ha,70
same,"Plant response rating, Morningglory",morningglory; [5],0
same,"Plant response rating, Foxtail, Giant",giant foxtail; [4],50
same,"Foxtail, Giant plant response rating",giant foxtail; 125 g ai/ha,10
same,"Foxtail, Giant plant response rating",giant foxtail; 500 g ai/ha,20
same,"Plant response rating, Foxtail, Giant",giant foxtail; [5],0
same,"Plant response rating, Crabgrass, Large",large crabgrass; [4],80
same,"Crabgrass, Large plant response rating",large crabgrass; 125 g ai/ha,10
same,"Crabgrass, Large plant response rating",large crabgrass; 500 g ai/ha,20
same,"Plant response rating, Crabgrass, Large",large crabgrass; [5],50
same,"Sedge, Umbrella plant response rating",[3],70
same,Rice plant response rating,rice,60
same,"Plant response rating, Velvetleaf",velvetleaf; [4],100
same,Velvetleaf plant response rating,velvetleaf; 125 g ai/ha,50
same,Velvetleaf plant response rating,velvetleaf; 500 g ai/ha,60
same,"Plant response rating, Velvetleaf",velvetleaf; [5],40
CCn1nc(C(C)(C)C)cc1C(=O)Nc1cc(C(=O)NCC2CC2)ccn1 [Compound 155],Wheat plant response rating,wheat,20
same,"Plant response rating, Barnyardgrass",barnyardgrass [1]; [4],90
same,Barnyardgrass plant response rating,barnyardgrass [1]; 125 g ai/ha,10
same,Barnyardgrass plant response rating,barnyardgrass [1]; 500 g ai/ha,20
same,"Plant response rating, Barnyardgrass",barnyardgrass [1]; [5],60
same,"Plant response rating, Pigweed",pigweed; [4],100
same,Pigweed plant response rating,pigweed; 125 g ai/ha,60
same,Pigweed plant response rating,pigweed; 500 g ai/ha,100
same,"Plant response rating, Pigweed",pigweed; [5],100
same,"Plant response rating, Cocklebur",cocklebur; [4],30
same,Cocklebur plant response rating,cocklebur; 125 g ai/ha,60
same,Cocklebur plant response rating,cocklebur; 500 g ai/ha,80
same,"Plant response rating, Cocklebur",cocklebur; [5],0
same,"Plant response rating, Lambsquarters",lambsquarters; [4],100
same,Lambsquarters plant response rating,lambsquarters; 125 g ai/ha,70
same,Lambsquarters plant response rating,lambsquarters; 500 g ai/ha,90
same,"Plant response rating, Lambsquarters",lambsquarters; [5],100
same,Blackgrass plant response rating,blackgrass; 125 g ai/ha,40
same,Blackgrass plant response rating,blackgrass; 500 g ai/ha,50
same,"Oat, Wild plant response rating",wild oat; 125 g ai/ha,40
same,"Oat, Wild plant response rating",wild oat; 500 g ai/ha,50
same,Barnyardgrass plant response rating,barnyardgrass [2],70
same,"Plant response rating, Surinam Grass",Surinam grass; [4],50
same,Surinam Grass plant response rating,Surinam grass; 125 g ai/ha,20
same,Surinam Grass plant response rating,Surinam grass; 500 g ai/ha,30
same,"Plant response rating, Surinam Grass",Surinam grass; [5],10
same,"Plant response rating, Morningglory",morningglory; [4],40
same,Morningglory plant response rating,morningglory; 125 g ai/ha,30
same,Morningglory plant response rating,morningglory; 500 g ai/ha,60
same,"Plant response rating, Morningglory",morningglory; [5],20
same,"Plant response rating, Foxtail, Giant",giant foxtail; [4],90
same,"Foxtail, Giant plant response rating",giant foxtail; 125 g ai/ha,20
same,"Foxtail, Giant plant response rating",giant foxtail; 500 g ai/ha,30
same,"Plant response rating, Foxtail, Giant",giant foxtail; [5],20
same,"Plant response rating, Crabgrass, Large",large crabgrass; [4],100
same,"Crabgrass, Large plant response rating",large crabgrass; 125 g ai/ha,20
same,"Crabgrass, Large plant response rating",large crabgrass; 500 g ai/ha,40
same,"Plant response rating, Crabgrass, Large",large crabgrass; [5],60
same,"Sedge, Umbrella plant response rating",[3],90
same,Rice plant response rating,rice,20
same,"Plant response rating, Velvetleaf",velvetleaf; [4],70
same,Velvetleaf plant response rating,velvetleaf; 125 g ai/ha,20
same,Velvetleaf plant response rating,velvetleaf; 500 g ai/ha,70
same,"Plant response rating, Velvetleaf",velvetleaf; [5],20
